Results published in publication PMC2248166, “Quantitative peptide binding motifs for 19 human and mouse MHC class I molecules derived using positional scanning combinatorial peptide libraries” (Immunome Research, 2008).
Where a SMILES comes first, the peptide text is derived from it.

Molecular target: HLA B*0801 (Homo sapiens, UniProt P01889, A93T/A95T/D138N/E176V/E187T/K202T/Q94N/R180D/S35A/V36M/Y33D/Y91F)
Assay: biochemical
Type: binding

Row | SMILES | IC50 [nM]
1 | CC[C@H](C)[C@H](NC(=O)[C@H](CO)NC(=O)[C@H](Cc1c[nH]cn1)NC(=O)[C@H](Cc1ccc(O)cc1)NC(=O)[C@H](CCCNC(=N)N)NC(=O)[C@@H]1CCCN1C(=O)[C@@H](N)Cc1ccccc1)C(=O)N[C@@H](CCC(=O)O)C(=O)N[C@@H](CC(C)C)C(=O)O [3102.0626] (H-FPRYHSIEL-OH) | 0.49
2 | CC[C@H](C)[C@H](NC(=O)[C@H](Cc1ccc(O)cc1)NC(=O)[C@@H](NC(=O)[C@@H](N)CO)C(C)C)C(=O)N[C@@H](CCCNC(=N)N)C(=O)N1CCC[C@H]1C(=O)N[C@H](C(=O)N[C@@H](CO)C(=O)N[C@@H](CC(C)C)C(=O)O)[C@@H](C)O [3102.0627] (H-SVYIRPTSL-OH) | 11
3 | CC[C@H](C)[C@H](NC(=O)[C@@H](N)CO)C(=O)N[C@@H](CC(N)=O)C(=O)N[C@H](C(=O)N[C@@H](CCCCN)C(=O)N[C@@H](Cc1c[nH]cn1)C(=O)N[C@H](C(=O)N[C@@H](CO)C(=O)N[C@H](C(=O)O)C(C)C)[C@@H](C)O)C(C)C [3102.0630] (H-SINVKHTSV-OH) | 13
4 | CC[C@H](C)[C@H](NC(=O)[C@H](CCSC)NC(=O)[C@@H](NC(=O)[C@H](CCCCN)NC(=O)[C@H](CC(C)C)NC(=O)[C@@H](N)CO)[C@@H](C)CC)C(=O)N[C@@H](CCC(N)=O)C(=O)N[C@@H](CO)C(=O)N[C@@H](CCSC)C(=O)O [3102.0631] (H-SLKIMIQSM-OH) | 2.5
5 | CC[C@H](C)[C@H](NC(=O)[C@H](Cc1c[nH]cn1)NC(=O)[C@H](Cc1ccccc1)NC(=O)[C@H](CC(C)C)NC(=O)[C@H](CC(N)=O)NC(=O)[C@@H]1CCCN1C(=O)[C@H](CC(C)C)NC(=O)[C@@H](N)CCCNC(=N)N)C(=O)N[C@@H](CC(C)C)C(=O)O [3102.0632] (H-RLPNLFHIL-OH) | 69
6 | CC(C)C[C@H](NC(=O)[C@H](CO)NC(=O)[C@@H]1CCCN1C(=O)[C@H](CCCNC(=N)N)NC(=O)[C@H](CCCCN)NC(=O)[C@H](CO)NC(=O)[C@H](CC(C)C)NC(=O)[C@H](CC(C)C)NC(=O)[C@@H](N)C(C)C)C(=O)O [3102.0634] (H-VLLSKRPSL-OH) | 78
7 | CC[C@H](C)[C@H](NC(=O)[C@H](CCCCN)NC(=O)[C@H](CC(C)C)NC(=O)[C@@H](NC(=O)[C@H](Cc1c[nH]cn1)NC(=O)[C@H](CCCCN)NC(=O)[C@H](CCCNC(=N)N)NC(=O)[C@H](CC(C)C)NC(=O)[C@@H](N)CC(C)C)[C@@H](C)O)C(=O)O [3102.0636] (H-LLRKHTLKI-OH) | 21
8 | CC(C)C[C@H](NC(=O)[C@H](CCCNC(=N)N)NC(=O)[C@H](CCCCN)NC(=O)[C@H](CC(N)=O)NC(=O)[C@H](CCCNC(=N)N)NC(=O)[C@H](CC(C)C)NC(=O)[C@H](CCCNC(=N)N)NC(=O)[C@H](CCCNC(=N)N)NC(=O)[C@@H](N)Cc1c[nH]cn1)C(=O)O [3102.0641] (H-HRRLRNKRL-OH) | 28
9 | CC[C@H](C)[C@H](NC(=O)[C@H](CC(N)=O)NC(=O)[C@H](CCCCN)NC(=O)[C@H](Cc1ccccc1)NC(=O)[C@H](CCCNC(=N)N)NC(=O)[C@H](CC(N)=O)NC(=O)[C@H](CCSC)NC(=O)[C@H](CC(C)C)NC(=O)[C@@H](N)Cc1ccc(O)cc1)C(=O)O [3102.0642] (H-YLMNRFKNI-OH) | 1.3
10 | CC(C)C[C@H](NC(=O)[C@@H](NC(=O)[C@H](CC(C)C)NC(=O)[C@H](CCCCN)NC(=O)[C@H](CCCNC(=N)N)NC(=O)[C@H](Cc1ccccc1)NC(=O)[C@H](Cc1ccccc1)NC(=O)[C@@H]1CCCN1C(=O)[C@@H](N)Cc1ccc(O)cc1)C(C)C)C(=O)O [3102.0643] (H-YPFFRKLVL-OH) | 5.9
11 | CSCC[C@H](N)C(=O)N[C@@H](CC(C)C)C(=O)N[C@@H](CC(C)C)C(=O)N[C@@H](CS)C(=O)N[C@@H](Cc1c[nH]cn1)C(=O)N[C@@H](CCCCN)C(=O)N1CCC[C@H]1C(=O)N[C@H](C(=O)N[C@@H](CC(C)C)C(=O)O)[C@@H](C)O [3102.0644] (H-MLLCHKPTL-OH) | 19
12 | CC[C@H](C)[C@H](NC(=O)[C@H](CCC(=O)O)NC(=O)[C@H](CCCNC(=N)N)NC(=O)[C@H](CC(C)C)NC(=O)[C@@H](N)CO)C(=O)N[C@@H](CO)C(=O)N[C@@H](CC(N)=O)C(=O)N[C@H](C(=O)N[C@H](C(=O)O)C(C)C)[C@@H](C)CC [3102.0645] (H-SLREISNIV-OH) | 10
13 | CC(C)C[C@H](NC(=O)[C@H](CO)NC(=O)[C@@H](NC(=O)[C@H](CC(C)C)NC(=O)[C@H](CO)NC(=O)[C@H](CCC(N)=O)NC(=O)[C@H](CCCCN)NC(=O)[C@H](CC(N)=O)NC(=O)[C@@H](N)Cc1ccc(O)cc1)C(C)C)C(=O)O [3102.0646] (H-YNKQSLVSL-OH) | 30
14 | CC[C@H](C)[C@H](NC(=O)[C@@H](N)CS)C(=O)N[C@@H](CCCCN)C(=O)N[C@@H](CO)C(=O)N[C@@H](Cc1c[nH]cn1)C(=O)N[C@@H](CO)C(=O)N[C@H](C(=O)N[C@@H](CO)C(=O)N[C@@H](CC(C)C)C(=O)O)C(C)C [3102.0647] (H-CIKSHSVSL-OH) | 2.3
15 | CC[C@H](C)[C@H](NC(=O)[C@@H](N)CC(N)=O)C(=O)N[C@@H](CCSC)C(=O)N1CCC[C@H]1C(=O)N[C@@H](CC(C)C)C(=O)N[C@@H](Cc1ccccc1)C(=O)N1CCC[C@H]1C(=O)N[C@H](C(=O)N[C@@H](Cc1ccccc1)C(=O)O)[C@@H](C)O [3102.0648] (H-NIMPLFPTF-OH) | 48
16 | CSCC[C@H](NC(=O)[C@H](Cc1ccccc1)NC(=O)[C@H](CCSC)NC(=O)[C@@H](N)CO)C(=O)N[C@@H](CO)C(=O)N[C@@H](CC(C)C)C(=O)N[C@@H](CC(C)C)C(=O)N1CCC[C@H]1C(=O)N[C@@H](C)C(=O)O [3102.0656] (H-SMFMSLLPA-OH) | 56
17 | CC[C@H](C)[C@H](NC(=O)[C@H](C)N)C(=O)N[C@@H](CCCCN)C(=O)N[C@@H](CC(C)C)C(=O)NCC(=O)N[C@@H](Cc1ccccc1)C(=O)N[C@@H](CCCCN)C(=O)N[C@@H](CO)C(=O)N[C@@H](CC(C)C)C(=O)O [3102.0664] (H-AIKLGFKSL-OH) | 41
18 | CC[C@H](C)[C@H](NC(=O)[C@H](CCCNC(=N)N)NC(=O)[C@H](Cc1ccc(O)cc1)NC(=O)[C@H](CCCCN)NC(=O)[C@H](CC(N)=O)NC(=O)[C@@H](N)CO)C(=O)N[C@@H](CCCCN)C(=O)N[C@@H](CO)C(=O)N[C@H](C(=O)O)C(C)C [3102.0666] (H-SNKYRIKSV-OH) | 2.7
19 | CC(C)C[C@H](NC(=O)[C@@H](N)CC(=O)O)C(=O)N[C@@H](CCCNC(=N)N)C(=O)N[C@@H](CCCNC(=N)N)C(=O)N[C@@H](CCCNC(=N)N)C(=O)N[C@@H](Cc1ccccc1)C(=O)N[C@@H](CC(=O)O)C(=O)N[C@H](C(=O)N[C@@H](Cc1ccccc1)C(=O)O)[C@@H](C)O [3102.0667] (H-DLRRRFDTF-OH) | 1.6
20 | CC[C@H](C)[C@H](NC(=O)[C@@H]1CCCN1C(=O)[C@H](CCCCN)NC(=O)[C@@H](NC(=O)[C@H](CCCNC(=N)N)NC(=O)[C@H](CC(N)=O)NC(=O)[C@H](CCCNC(=N)N)NC(=O)[C@H](CCSC)NC(=O)[C@@H](N)CCSC)[C@@H](C)O)C(=O)O [3102.0668] (H-MMRNRTKPI-OH) | 1.5
21 | CSCC[C@H](NC(=O)[C@H](CC(C)C)NC(=O)[C@H](CCCNC(=N)N)NC(=O)[C@H](CCCCN)NC(=O)[C@H](CCSC)NC(=O)[C@H](CCSC)NC(=O)[C@@H](N)CCSC)C(=O)N[C@@H](Cc1ccccc1)C(=O)N[C@@H](CCC(=O)O)C(=O)O [3102.0672] (H-MMMKRLMFE-OH) | 75
22 | CC(C)C[C@H](NC(=O)[C@@H](N)CC(C)C)C(=O)N[C@@H](CCCCN)C(=O)N[C@@H](Cc1ccccc1)C(=O)N[C@@H](CCCNC(=N)N)C(=O)N[C@H](C(=O)N[C@@H](CCC(=O)O)C(=O)N[C@@H](CO)C(=O)N[C@@H](CS)C(=O)O)C(C)C [3102.0675] (H-LLKFRVESC-OH) | 74
23 | CC[C@H](C)[C@H](NC(=O)[C@H](CCCCN)NC(=O)[C@@H](NC(=O)[C@H](CCCCN)NC(=O)[C@@H](NC(=O)[C@@H](N)CC(=O)O)[C@@H](C)CC)[C@@H](C)O)C(=O)N[C@@H](CCSC)C(=O)N[C@H](C(=O)N[C@@H](CC(C)C)C(=O)O)C(C)C [3102.0683] (H-DIKTKIMVL-OH) | 73
24 | CSCC[C@H](NC(=O)[C@H](CO)NC(=O)[C@H](Cc1c[nH]cn1)NC(=O)[C@H](CCCCN)NC(=O)[C@@H](NC(=O)[C@H](Cc1ccc(O)cc1)NC(=O)[C@H](CCSC)NC(=O)[C@@H](N)Cc1ccccc1)[C@@H](C)O)C(=O)N[C@@H](CC(C)C)C(=O)O [3102.0684] (H-FMYTKHSML-OH) | 0.2
25 | CC[C@H](C)[C@H](NC(=O)[C@H](CCCCN)NC(=O)[C@H](CC(C)C)NC(=O)[C@@H](N)Cc1ccccc1)C(=O)N[C@@H](CCCCN)C(=O)N[C@H](C(=O)N[C@H](C(=O)N[C@@H](C)C(=O)N[C@@H](C)C(=O)O)[C@@H](C)O)C(C)C [3102.0685] (H-FLKIKVTAA-OH) | 15
26 | CC(C)C[C@H](NC(=O)[C@@H](N)Cc1ccc(O)cc1)C(=O)N[C@@H](CCCNC(=N)N)C(=O)N[C@H](C(=O)N[C@@H](CCCCN)C(=O)N1CCC[C@H]1C(=O)N[C@@H](C)C(=O)N[C@@H](CO)C(=O)N[C@@H](C)C(=O)O)[C@@H](C)O [3102.0686] (H-YLRTKPASA-OH) | 1.5
27 | CC[C@H](C)[C@H](NC(=O)[C@@H]1CCCN1C(=O)[C@H](CCCNC(=N)N)NC(=O)[C@H](Cc1c[nH]cn1)NC(=O)[C@H](CCCNC(=N)N)NC(=O)[C@H](CCCCN)NC(=O)[C@H](CC(N)=O)NC(=O)[C@@H](N)CO)C(=O)NCC(=O)O [3102.0687] (H-SNKRHRPIG-OH) | 34
28 | CC[C@H](C)[C@H](NC(=O)[C@H](Cc1c[nH]cn1)NC(=O)[C@H](Cc1ccccc1)NC(=O)[C@H](CCCNC(=N)N)NC(=O)[C@@H](NC(=O)[C@@H](N)CO)[C@@H](C)CC)C(=O)N[C@@H](CCCCN)C(=O)N[C@@H](CCC(=O)O)C(=O)N[C@@H](CC(C)C)C(=O)O [3102.0695] (H-SIRFHIKEL-OH) | 0.45
29 | CC(C)C[C@H](NC(=O)[C@H](CO)NC(=O)CNC(=O)[C@H](Cc1ccccc1)NC(=O)[C@@H](NC(=O)[C@H](CCC(N)=O)NC(=O)[C@H](CCCCN)NC(=O)[C@H](Cc1ccccc1)NC(=O)[C@@H](N)Cc1ccccc1)[C@@H](C)O)C(=O)O [3102.0697] (H-FFKQTFGSL-OH) | 0.74
30 | CSCC[C@H](NC(=O)[C@H](CCC(N)=O)NC(=O)[C@H](CCCCN)NC(=O)[C@@H](NC(=O)[C@H](CCC(N)=O)NC(=O)[C@@H]1CCCN1C(=O)[C@@H](N)CC(N)=O)[C@@H](C)O)C(=O)N[C@@H](C)C(=O)N[C@@H](Cc1ccccc1)C(=O)O [3102.0698] (H-NPQTKQMAF-OH) | 14
